Counter-ions that a name gives are not always drawn.
Biological target: T1, human HPK1 (MAP4K1) (Homo sapiens, UniProt Q92918)
T1 construct: Recombinant human HPK1 kinase domain was obtained from ThermoFisher (Cat. #PV6357) and SignalChem (Cat. #M23-11G); purchased ThermoFisher; SignalChem PV6357; M23-11G
T1 sequence (Q92918 17-274 limits assumed): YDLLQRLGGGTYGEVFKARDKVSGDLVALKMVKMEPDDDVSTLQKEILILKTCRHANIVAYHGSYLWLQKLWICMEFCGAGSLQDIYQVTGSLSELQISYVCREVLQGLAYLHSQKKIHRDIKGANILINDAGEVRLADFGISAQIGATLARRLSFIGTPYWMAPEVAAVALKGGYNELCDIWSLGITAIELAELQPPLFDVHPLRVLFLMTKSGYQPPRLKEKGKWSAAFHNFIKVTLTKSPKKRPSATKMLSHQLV
Test: Biochemical assay for activity against HPK1 (ADP-Glo, MBP substrate)
Details: recombinant human HPK1 kinase domain, 1 nM enzyme, ADP-Glo luminescence
Description: These compounds are made by the synthetic methods described earlier herein. Example 227 Biochemical Assay for Testing Compounds for Activity against HPK1
The enzymatic activity of human HPK1 (MAP4K1) was monitored in a biochemical assay in the presence or absence of compounds, using a peptide substrate (myelin basic protein, MBP), with an ADP-Glo assay kit (Promega, Cat. #V9103). An increase in phosphorylation of the peptide by HPK1 was indicative of its kinase activity.
Recombinant human HPK1 kinase domain was obtained from ThermoFisher (Cat. #PV6357) and SignalChem (Cat. #M23-11G). A 1 nM HPK1 kinase enzyme solution was prepared from the HPK1 stock received from the commercial supplier using an assay buffer containing 50 mM HEPES (4-(2-hydroxyethyl)-1-piperazineethanesulfonic acid) pH 7.5 (Fisher Scientific, Cat. #H1035), 150 mM NaCl (Fisher Scientific, Cat. #50843067), 3 mM TCEP-HCl (Tris(2-carboxyethyl)phosphine hydrochloride; Fisher Scientific, Cat. #PIPG82080), 10 mM MgCl2 (Fisher Scientific, Cat. #AM9530G), 0.005% Tween-20 (Fisher Scientific, Cat. #BP337500) and 0.01% BSA (bovine serum albumin; ThermoFisher, Cat. #15260037), in ultra-pure water. The final concentration of the assay buffer was 770 nM. A 5 mM stock solution of the peptide substrate was prepared using […] MBP (Myelin Basic Protein, Active Motif, Cat. #31314), 10 mM ATP (adenosine 5′-triphosphate; Sigma-Aldrich, Cat. #GE27-2056-01) and of assay buffer.
Test compounds were dissolved in DMSO (dimethyl sulfoxide) at 10 mM and then serial dilutions were prepared using a ViaFlow assist multichannel dispenser (Integra ViaFlo). 20 nL of test compounds at various concentrations were dispensed into a 1536-well assay plate (Corning Cat. #7247) using an Echo Nanoliter dispenser (Labcyte ECHO 550). […] of a 1 nM solution of HPK1 kinase enzyme diluted in assay buffer was added to the compound-containing plate using a Mantis Microliter dispenser (Formulatrix Mantis), covered with a lid, and incubated for 15 minutes at room temperature. 50 nL of a 5 mM stock solution of the peptide substrate (MBP) were added using the Echo Nanoliter dispenser. The plate was covered with a lid, centrifugated at 500 rpm for 1 minute and incubated for 2 hours at room temperature. […] of ADP-Glo reagent A was added using the Mantis Microliter dispenser, centrifugated at 500 rpm for 30 seconds and incubated for 40 minutes at room temperature. […] of ADP-Glo reagent B was added using the Mantis Microliter dispenser, centrifugated at 500 rpm for 30 seconds and incubated for 30 minutes at room temperature. Peptide phosphorylation was measured by luminescence on an Envision plate reader (PerkinElmer).
The HPK1 biochemical IC50 activity levels of the compounds of Examples 1-225 were tested using this assay and are shown in Table 2.

IC50, < 100 nM:
COc1nc2c(cc1Nc1ncc3cnn(C[C@@H]4C[C@H](F)CN4C(C)=O)c3n1)CN(C)CC2 [Example 212, 1-[(2S,4S)-4-fluoro-2-[[6-[(2-methoxy-6-methyl-7,8-dihydro-5H-1,6-naphthyridin-3-yl)amino]pyrazolo[3,4-d]pyrimidin-1-yl]methyl]pyrrolidin-1-yl]ethenone]
COc1cc2c(cc1Nc1ncc3cnn([C@H]4C[C@@H](CO)C4)c3n1)CN(C)CC2 [Example 66, cis-[3-[6-[(6-methoxy-2-methyl-3,4-dihydro-1H-isoquinolin-7-yl)amino]pyrazolo[3,4-d]pyrimidin-1-yl]cyclobutyl]methanol]
CN1CCc2ccc(Nc3ncc4cnn(C5CCCOC5)c4n3)cc2C1 (stereo not shown) [Example 15, 2-methyl-N-(1-(tetrahydro-2H-pyran-3-yl)-1H-pyrazolo[3,4-d]pyrimidin-6-yl)-1,2,3,4-tetrahydroisoquinolin-7-amine]
COc1cc2c(cc1Nc1ncc3cnn([C@H]4CCC[C@H](C(N)=O)C4)c3n1)CN(C)CC2 [Example 31, (1S,3S)-3-(6-((6-methoxy-2-methyl-1,2,3,4-tetrahydroisoquinolin-7-yl)amino)-1H-pyrazolo[3,4-d]pyrimidin-1-yl)cyclohexane-1-carboxamide]
COc1cc2c(cc1Nc1ncc3c(C)nn([C@H]4C[C@H](CNS(C)(=O)=O)C4)c3n1)CN(C)CC2 [Example 132, N-(((1r,3r)-3-(6-((6-methoxy-2-methyl-1,2,3,4-tetrahydroisoquinolin-7-yl)amino)-3-methyl-1H-pyrazolo[3,4-d]pyrimidin-1-yl)cyclobutyl)methyl)methanesulfonamide]
COc1cc2c(cc1Nc1ncc3cnn(C[C@H]4CN(S(C)(=O)=O)CCO4)c3n1)CN(C)CC2 [Example 128, (S)-6-methoxy-2-methyl-N-(1-((4-(methylsulfonyl)morpholin-2-yl)methyl)-1H-pyrazolo[3,4-d]pyrimidin-6-yl)-1,2,3,4-tetrahydroisoquinolin-7-amine trifluoroacetate]
COc1cc2c(cc1Nc1ncc3cnn(C[C@@H]4CCCC[C@@H]4CO)c3n1)CN(C)CC2 (racemic) [Example 166, [rac-cis-2-[[6-[(6-methoxy-2-methyl-3,4-dihydro-1H-isoquinolin-7-yl)amino]pyrazolo[3,4-d]pyrimidin-1-yl]methyl]cyclohexyl]methanol]
COc1cc2c(cc1Nc1ncc3cnn(C[C@H]4CCCN(C(C)=O)C4)c3n1)CN(C)CC2 [Example 142, I-[(3S)-3-[[6-[(6-methoxy-2-methyl-3,4-dihydro-1H-isoquinolin-7-yl)amino]pyrazolo[3,4-d]pyrimidin-1-yl]methyl]-1-piperidyl]ethan-1-one]
CNC(=O)[C@@H]1CCC[C@@H](n2ncc3cnc(Nc4cc5c(cc4OC)CCN(C)C5)nc32)C1 [Example 53, (1R,3R)-3-(6-((6-methoxy-2-methyl-1,2,3,4-tetrahydroisoquinolin-7-yl)amino)-1H-pyrazolo[3,4-d]pyrimidin-1-yl)-N-methylcyclohexane-1-carboxamide]
COc1cc2c(cc1Nc1ncc3cnn(C4CC5(CCN(S(C)(=O)=O)CC5)C4)c3n1)CN(C)CC2 [Example 82, 6-methoxy-2-methyl-N-[1-(7-methylsulfonyl-7-azaspiro[3.5]nonan-2-yl)pyrazolo[3,4-d]pyrimidin-6-yl]-3,4-dihydro-1H-isoquinolin-7-amine]
COc1nc2c(cc1Nc1ncc3cnn(C[C@@H]4CCC(C)(C)N4C(C)=O)c3n1)CN(C)CC2 [Example 177, 1-[(5S)-5-[[6-[(2-methoxy-6-methyl-7,8-dihydro-5H-1,6-naphthyridin-3-yl)amino]pyrazolo[3,4-d]pyrimidin-1-yl]methyl]-2,2-dimethyl-pyrrolidin-1-yl]ethenone]
COc1cc2c(cc1Nc1ncc3cnn([C@H]4CC[C@H](O)CC4)c3n1)CNCC2 [Example 152, trans-4-(6-((6-methoxy-1,2,3,4-tetrahydroisoquinolin-7-yl)amino)-1H-pyrazolo[3,4-d]pyrimidin-1-yl)cyclohexan-1-ol]
COc1cc2c(cc1Nc1ncc3cnn(C[C@@H]4CCC[C@H]4C(N)=O)c3n1)CN(C)CC2 (racemic) [Example 159, racemic trans-2-[[6-[(6-methoxy-2-methyl-3,4-dihydro-1H-isoquinolin-7-yl)amino]pyrazolo[3,4-d]pyrimidin-1-yl]methyl]cyclopentanecarboxamide]
CCC(=O)N1CCC[C@H]1Cn1ncc2cnc(Nc3cc4c(cc3OC)CCN(C)C4)nc21 [Example 112, (S)-1-(2-((6-((6-methoxy-2-methyl-1,2,3,4-tetrahydroisoquinolin-7-yl)amino)-1H-pyrazolo[3,4-d]pyrimidin-1-yl)methyl)pyrrolidin-1-yl)propan-1-one trifluoroacetate]
COc1cc2c(cc1Nc1ncc3cnn([C@H]4C[C@](C)(C(=O)O)C4)c3n1)CN(C)CC2 [Example 71, 3-[6-[(6-methoxy-2-methyl-3,4-dihydro-1H-isoquinolin-7-yl)amino]pyrazolo[3,4-d]pyrimidin-1-yl]-1-methyl-cyclobutanecarboxylic acid]
CN1CCc2ccc(Nc3ncc4cnn(CCN5CCCS5(=O)=O)c4n3)cc2C1 [Example 4, N-[1-[2-(1,1-dioxo-1,2-thiazolidin-2-yl)ethyl]pyrazolo[3,4-d]pyrimidin-6-yl]-2-methyl-3,4-dihydro-1H-isoquinolin-7-amine trifluoroacetate]
CN1CCc2ccc(Nc3ncc4cnn(CCS(C)(=O)=O)c4n3)cc2C1 [Example 150, 2-methyl-N-(1-(2-(methylsulfonyl)ethyl)-1H-pyrazolo[3,4-d]pyrimidin-6-yl)-1,2,3,4-tetrahydroisoquinolin-7-amine]
CO[C@H]1CC[C@@H](n2ncc3cnc(Nc4ccc5c(c4)CN(C)CC5)nc32)CC1 [Example 36, N-(1-((cis)-4-methoxycyclohexyl)-1H-pyrazolo[3,4-d]pyrimidin-6-yl)-2-methyl-1,2,3,4-tetrahydroisoquinolin-7-amine]
COc1nc2c(cc1Nc1ncc3cnn(C[C@@H]4CCCN4C(C)=O)c3n1)CN(C)CC2 [Example 198]
COc1cc2c(cc1Nc1ncc3cnn(CCNC(C)=O)c3n1)CN(C)CC2 [Example 87, N-[2-[6-[(6-methoxy-2-methyl-3,4-dihydro-1H-isoquinolin-7-yl)amino]pyrazolo[3,4-d]pyrimidin-1-yl]ethyl]acetamide]
COc1cc2c(cc1Nc1ncc3cnn(C[C@@H]4CCCN4C(C)=O)c3n1)CN(C)CC2 [Example 110, (S)-1-(2-((6-((6-methoxy-2-methyl-1,2,3,4-tetrahydroisoquinolin-7-yl)amino)-1H-pyrazolo[3,4-d]pyrimidin-1-yl)methyl)pyrrolidin-1-yl)ethan-1-one]
COc1cc2c(cc1Nc1ncc3cnn([C@H]4CCN(C(C)=O)C[C@H]4C)c3n1)CN(C)CC2 [Example 210, 1-((3R,4S)-4-(6-((6-methoxy-2-methyl-1,2,3,4-tetrahydroisoquinolin-7-yl)amino)-1H-pyrazolo[3,4-d]pyrimidin-1-yl)-3-methylpiperidin-1-yl)ethan-1-one]

— patent US11918582B2 (RAPT Therapeutics, Inc., priority 2021, dated 2024)
